25 compounds from ChEMBL document CHEMBL5137042, “Tetrahydropyridin-4-ylpicolinoylglycines as novel and orally active prolyl hydroxylase 2 (PHD2) inhibitors for the treatment of renal anemia” (Eur J Med Chem, 2022) can be followed below.

SMILES strings stand for the structures. Active and inactive are the calls of the source. No cut-off for these calls is given here. Some results are limits rather than exact numbers.

One data set has as its target Egl nine homolog 1 (Homo sapiens, UniProt Q9GZT9). Kind of data set: Inhibition of PHD2 (181 to 426 residue) (unknown origin) measured by fluorescence polarization assay.
Data set [1] is described as follows: Cytotoxicity against human Hep3B cells assessed as cell viability at 100 uM incubated for 24 hrs by CCK8 assay relative to control. The data set is classed as toxicity, cell-based, Hep 3B2. The settings on record: read-out: Activity. A general note: Tetrazolium dyes change colour on reduction, which living cells bring about.
Data set [2] deals with Mus musculus. The experiment in a line: Induction of reticulocytes production in C57BL/6 mouse at 20 mg/kg, po measured at day 3 and 3 days post-dose. The settings on record: time 3.0 day. The data set is classed as functional, organism-based.
For another data set, the system named is Hep3B. Kind of data set: Induction of HIF-alpha stabilization in human Hep3B cells assessed as fold increase in EPO transcriptional activity at 5 uM incubated for 12 hrs by qRT-PCR analysis. The data set is classed as cell-based.
In data set [3] the test system is Mus musculus. The experiment in a line: Induction of reticulocytes production in po dosed C57BL/6 mouse measured at day 3 and 3 days post-dose. The data set is classed as functional, organism-based. The settings on record: dose 10-50 mg/kg, time 3.0 day, DDE = dose-dependent effect.
A short description of data set [4]: Toxicity in ICR mouse assessed as increase in body weight at 15 to 100 mg/kg, po administered every other day and measured upto 14 days. In kind it is organism-based. The settings on record: in vivo, 336 h, dose 15-100 mg/kg, time < 14 day.
Data set [5] can be described thus: Toxicity in male ICR mouse assessed as change in lung to body weight ratio at 15 to 100 mg/kg, po administered every other day and measured after 14 days. The data set is classed as organism-based. The settings on record: in vivo, 336 h, dose 15-100 mg/kg, time 14 day.
A short description of data set [6]: Toxicity in male ICR mouse assessed as change in heart to body weight ratio at 15 to 100 mg/kg, po administered every other day and measured after 14 days. The note with it: in vivo, 336 h, dose 15-100 mg/kg, time 14 day. In kind it is organism-based.
The nature of data set [7]: Toxicity in male ICR mouse assessed as change in liver to body weight ratio at 15 to 100 mg/kg, po administered every other day and measured after 14 days. The data set is classed as organism-based. The settings on record: in vivo, 336 h, dose 15-100 mg/kg, time 14 day.
Data set [8] in a line: Toxicity in male ICR mouse assessed as change in kidney to body weight ratio at 15 to 100 mg/kg, po administered every other day and measured after 14 days. The data set is classed as organism-based. The note with it: in vivo, 336 h, dose 15-100 mg/kg, time 14 day.
Data set [9] is described as follows: Toxicity in male ICR mouse assessed as change in spleen to body weight ratio at 15 to 100 mg/kg, po administered every other day and measured after 14 days. In kind it is organism-based. The settings on record: in vivo, 336 h, dose 15-100 mg/kg, time 14 day.
Data set [10] can be described thus: Toxicity in female ICR mouse assessed as change in lung to body weight ratio at 15 to 100 mg/kg, po administered every other day and measured after 14 days. The data set is classed as organism-based. The note with it: in vivo, 336 h, dose 15-100 mg/kg, time 14 day.
A short description of data set [11]: Toxicity in female ICR mouse assessed as change in heart to body weight ratio at 15 to 100 mg/kg, po administered every other day and measured after 14 days. The data set is classed as organism-based. The settings on record: in vivo, 336 h, dose 15-100 mg/kg, time 14 day.
Data set [12] in a line: Toxicity in female ICR mouse assessed as change in liver to body weight ratio at 15 to 100 mg/kg, po administered every other day and measured after 14 days. In kind it is organism-based. The settings on record: in vivo, 336 h, dose 15-100 mg/kg, time 14 day.
Data set [13] in a line: Toxicity in female ICR mouse assessed as change in kidney to body weight ratio at 15 to 100 mg/kg, po administered every other day and measured after 14 days. In kind it is organism-based. The settings on record: in vivo, 336 h, dose 15-100 mg/kg, time 14 day.
Data set [14] in a line: Toxicity in female ICR mouse assessed as change in spleen to body weight ratio at 15 to 100 mg/kg, po administered every other day and measured after 14 days. The data set is classed as organism-based. The settings on record: in vivo, 336 h, dose 15-100 mg/kg, time 14 day.
Data set [15] in a line: Renal toxicity in ICR mouse assessed as effect on BUN level at 15 to 100 mg/kg, po administered every other day and measured after 14 days. In kind it is organism-based. The settings on record: in vivo, 336 h, dose 15-100 mg/kg, time 14 day.
Data set [16] in a line: Renal toxicity in ICR mouse assessed as effect on […] level at 15 to 100 mg/kg, po administered every other day and measured after 14 days. The settings on record: in vivo, 336 h, dose 15-100 mg/kg, time 14 day. In kind it is organism-based.
Data set [17] is described as follows: Hepatotoxicity in ICR mouse assessed as effect on […] level at 15 to 100 mg/kg, po administered every other day and measured after 14 days. The data set is classed as toxicity, organism-based. The settings on record: in vivo, 336 h, dose 15-100 mg/kg, time 14 day.
Data set [18] is described as follows: Hepatotoxicity in ICR mouse assessed as effect on ALT level at 15 to 100 mg/kg, po administered every other day and measured after 14 days. The data set is classed as toxicity, organism-based. The settings on record: in vivo, 336 h, dose 15-100 mg/kg, time 14 day.
Data set [19] is described as follows: Toxicity in ICR mouse assessed as heart edema at 15 to 100 mg/kg, po administered every other day and measured after 14 days by H and E staining method. The note with it: in vivo, 336 h, dose 15-100 mg/kg, time 14 day. The data set is classed as organism-based.
The nature of data set [20]: Toxicity in ICR mouse assessed as liver edema at 15 to 100 mg/kg, po administered every other day and measured after 14 days by H and E staining method. The data set is classed as organism-based. The settings on record: in vivo, 336 h, dose 15-100 mg/kg, time 14 day.
Data set [21] is described as follows: Toxicity in ICR mouse assessed as lung edema at 15 to 100 mg/kg, po administered every other day and measured after 14 days by H and E staining method. In kind it is organism-based. The note with it: in vivo, 336 h, dose 15-100 mg/kg, time 14 day.
The nature of data set [22]: Toxicity in ICR mouse assessed as spleen edema at 15 to 100 mg/kg, po administered every other day and measured after 14 days by H and E staining method. The data set is classed as organism-based. The settings on record: in vivo, 336 h, dose 15-100 mg/kg, time 14 day.
A short description of data set [23]: Toxicity in ICR mouse assessed as kidney edema at 15 to 100 mg/kg, po administered every other day and measured after 14 days by H and E staining method. In kind it is organism-based. The note with it: in vivo, 336 h, dose 15-100 mg/kg, time 14 day.

Sequence of Egl nine homolog 1 (Q9GZT9 whole entry): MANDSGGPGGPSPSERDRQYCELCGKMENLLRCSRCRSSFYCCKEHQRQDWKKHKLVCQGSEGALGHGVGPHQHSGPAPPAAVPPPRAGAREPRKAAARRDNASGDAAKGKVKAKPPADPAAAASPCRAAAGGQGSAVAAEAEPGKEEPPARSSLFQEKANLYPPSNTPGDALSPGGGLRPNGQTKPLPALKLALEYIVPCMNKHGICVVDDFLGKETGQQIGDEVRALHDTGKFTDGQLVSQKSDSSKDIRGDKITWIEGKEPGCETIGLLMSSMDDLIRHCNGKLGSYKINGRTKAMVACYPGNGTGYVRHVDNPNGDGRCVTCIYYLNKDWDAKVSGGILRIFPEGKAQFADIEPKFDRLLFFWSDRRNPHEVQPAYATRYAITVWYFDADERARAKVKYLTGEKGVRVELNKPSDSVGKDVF

`O=C(O)CNC(=O)c1ncc(C2=CCN(S(=O)(=O)c3ccc(Br)cc3)CC2)cc1O` had an IC50 on Egl nine homolog 1 of 29.7 nM.
`O=C(O)CNC(=O)c1ncc(C2=CCN(S(=O)(=O)c3cccs3)CC2)cc1O` gave an IC50 against Egl nine homolog 1 of 46.5 nM.
Same read-out and setting: to `O=C(O)CNC(=O)c1ncc(C2=CCN(S(=O)(=O)c3ccc(Cl)cc3)CC2)cc1O` belongs 27 nM.
The same measure, in the same setting: to `O=C(O)CNC(=O)c1ncc(C2=CCN(S(=O)(=O)c3cccc(F)c3)CC2)cc1O` belongs 141 nM; to `O=C(O)CNC(=O)c1ncc(C2=CCN(S(=O)(=O)c3ccc(OC(F)(F)F)cc3)CC2)cc1O`, 50.9 nM; to `O=C(O)CNC(=O)c1ncc(C2=CCN(C(=O)Nc3ccc(Cl)cc3)CC2)cc1O`, 27 nM.
`O=C(O)CNC(=O)c1ncc(C2=CCN(S(=O)(=O)Cc3ccccc3)CC2)cc1O`: the IC50 against Egl nine homolog 1 came out at 18.2 nM.
The same measure, in the same setting: to `O=C(O)CNC(=O)c1ncc(C2=CCN(S(=O)(=O)c3ccccc3F)CC2)cc1O` belongs 82.8 nM; to `O=C(O)CNC(=O)c1ncc(C2=CCN(C(=O)c3ccc(Cl)cc3)CC2)cc1O`, 25 nM.
Consider `O=C(O)CNC(=O)c1ncc(C2=CCN(S(=O)(=O)Cc3ccc(C(F)(F)F)cc3)CC2)cc1O`, for which half-maximal inhibition on Egl nine homolog 1 (IC50) was put at 7.97 nM. In [1], the viability at 24 h, 100 µM is > 80%. For the same compound, the result with Mus musculus [2] was Active.
At Egl nine homolog 1, `O=C(O)CNC(=O)c1ncc(C2CCN(Cc3ccc(Cl)cc3)CC2)cc1O` gave an IC50 of 588 nM.
For `O=C(O)CNC(=O)c1ncc(C2=CCN(S(=O)(=O)Cc3ccc(Cl)cc3)CC2)cc1O`, the IC50 on Egl nine homolog 1 was determined as 6.14 nM. The viability at 24 h, 100 µM in data set [1] is > 80%. The result in the data set on Mus musculus [2] was Active.
Turning to `O=C(O)CNC(=O)c1ncc(C2=CCN(S(=O)(=O)c3ccccc3)CC2)cc1O`, half-maximal inhibition against Egl nine homolog 1 (IC50) required 132 nM.
Still for that read-out and setting: to `O=C(O)CNC(=O)c1ncc(C2=CCN(Cc3ccc(Cl)cc3)CC2)cc1O` belongs 73.9 nM; to `O=C(O)CNC(=O)c1ncc(C2=CCN(S(=O)(=O)c3ccc(F)cc3)CC2)cc1O`, 43.5 nM.
On the same count and under the same terms, to `Cc1ccc(S(=O)(=O)N2CC=C(c3cnc(C(=O)NCC(=O)O)c(O)c3)CC2)cc1` belongs 45.3 nM.
Same read-out and setting: to `O=C(O)CNC(=O)c1ncc(C2=CCN(S(=O)(=O)c3cccc4ccccc34)CC2)cc1O` belongs 22.4 nM.
The compound `CC(C)(C)c1ccc(S(=O)(=O)N2CC=C(c3cnc(C(=O)NCC(=O)O)c(O)c3)CC2)cc1` gave an IC50 at Egl nine homolog 1 of 796 nM.
The same measure, in the same setting: to `O=C(O)CNC(=O)c1ncc(C2=CCN(S(=O)(=O)c3cccnc3)CC2)cc1O` belongs 51.2 nM.
With `O=C(O)CNC(=O)c1ncc(C2=CCN(S(=O)(=O)Cc3ccc(F)cc3)CC2)cc1O`, the IC50 at Egl nine homolog 1 came to 6.31 nM. Further, in data set [1], the viability at 24 h, 100 µM was > 80%. In the data set on Mus musculus [2], the outcome was Active.
At Egl nine homolog 1, `O=C(O)CNC(=O)c1ncc(C2=CCN(S(=O)(=O)c3ccc(C(F)(F)F)cc3)CC2)cc1O` yielded an IC50 of 72.3 nM.
On the same count and under the same terms, to `O=C(O)CNC(=O)c1ncc(C2=CCN(S(=O)(=O)c3ccc4ccccc4c3)CC2)cc1O` belongs 97.4 nM.
Consider `O=C(O)CNC(=O)c1ncc(C2=CCN(S(=O)(=O)Cc3ccc(Br)cc3)CC2)cc1O`, for which the midpoint of inhibition against Egl nine homolog 1, the IC50, lay at 6.95 nM. In addition, the viability at 24 h, 100 µM in [1] was > 80%. Besides, the FC in the data set with Hep3B was found to be 2. The outcome in the data set on Mus musculus [2] was Active.
With `O=C(O)CNC(=O)c1ncc(C2=CCN(S(=O)(=O)Cc3ccc(OC(F)(F)F)cc3)CC2)cc1O`, the midpoint of inhibition against Egl nine homolog 1, the IC50, lay at 6.55 nM. Further, the viability at 24 h, 100 µM in data set [1] was > 80%. Moreover, the result with Mus musculus [2] was Active. For the same compound, the Activity result in the data set on Mus musculus [3] is “Dde”; in data set [4], “Non-Toxic”; in data set [5] it was “Non-Toxic”; in data set [6] it was “Non-Toxic”; in data set [7], “Non-Toxic”; in [8], “Non-Toxic”. Further, the Activity entry in [9], in data set [10], in data set [11], in [12], in data set [13] and in data set [14] was “Non-Toxic” in each case. Besides, the Activity entry in data set [15], in data set [16], in [17], in data set [18], in data set [19] and in data set [20] was “Non-Toxic” throughout. Besides, the Activity entry in data set [21], in data set [22] and in data set [23] was “Non-Toxic” throughout.
On Egl nine homolog 1, `N#Cc1ccc(S(=O)(=O)N2CC=C(c3cnc(C(=O)NCC(=O)O)c(O)c3)CC2)cc1` came in with an IC50 of 20.7 nM.

Usually IC50 stands for the midpoint of a concentration-inhibition curve.
